Test results as given in patent US10787450B2 (BRISTOL-MYERS SQUIBB COMPANY, priority 2016, dated 2020).

molecular target: ROCK2 (Homo sapiens (Human), UniProt O75116); test: ROCK2 kinase inhibition assay (FITC peptide substrate, LABCHIP 3000 Reader); type: biochemical; conditions: 5 μM ATP, 1.5 μM peptide substrate
Procedure, shortened: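 Reaction in 20 mM HEPES pH 7.5, 20 mM MgCl2, 0.015% Brij-35, 4 mM DTT with 5 μM ATP and 1.5 μM FITC-AHA-AKRRRLSSLRA-OH peptide, started with Rho kinase, DMSO <2%. EDTA-stopped; phospho and non-phospho peptide separated by mobility shift. IC50 from dose-response curve fit.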

ROCK2, sequence (O75116 whole entry, species assumed): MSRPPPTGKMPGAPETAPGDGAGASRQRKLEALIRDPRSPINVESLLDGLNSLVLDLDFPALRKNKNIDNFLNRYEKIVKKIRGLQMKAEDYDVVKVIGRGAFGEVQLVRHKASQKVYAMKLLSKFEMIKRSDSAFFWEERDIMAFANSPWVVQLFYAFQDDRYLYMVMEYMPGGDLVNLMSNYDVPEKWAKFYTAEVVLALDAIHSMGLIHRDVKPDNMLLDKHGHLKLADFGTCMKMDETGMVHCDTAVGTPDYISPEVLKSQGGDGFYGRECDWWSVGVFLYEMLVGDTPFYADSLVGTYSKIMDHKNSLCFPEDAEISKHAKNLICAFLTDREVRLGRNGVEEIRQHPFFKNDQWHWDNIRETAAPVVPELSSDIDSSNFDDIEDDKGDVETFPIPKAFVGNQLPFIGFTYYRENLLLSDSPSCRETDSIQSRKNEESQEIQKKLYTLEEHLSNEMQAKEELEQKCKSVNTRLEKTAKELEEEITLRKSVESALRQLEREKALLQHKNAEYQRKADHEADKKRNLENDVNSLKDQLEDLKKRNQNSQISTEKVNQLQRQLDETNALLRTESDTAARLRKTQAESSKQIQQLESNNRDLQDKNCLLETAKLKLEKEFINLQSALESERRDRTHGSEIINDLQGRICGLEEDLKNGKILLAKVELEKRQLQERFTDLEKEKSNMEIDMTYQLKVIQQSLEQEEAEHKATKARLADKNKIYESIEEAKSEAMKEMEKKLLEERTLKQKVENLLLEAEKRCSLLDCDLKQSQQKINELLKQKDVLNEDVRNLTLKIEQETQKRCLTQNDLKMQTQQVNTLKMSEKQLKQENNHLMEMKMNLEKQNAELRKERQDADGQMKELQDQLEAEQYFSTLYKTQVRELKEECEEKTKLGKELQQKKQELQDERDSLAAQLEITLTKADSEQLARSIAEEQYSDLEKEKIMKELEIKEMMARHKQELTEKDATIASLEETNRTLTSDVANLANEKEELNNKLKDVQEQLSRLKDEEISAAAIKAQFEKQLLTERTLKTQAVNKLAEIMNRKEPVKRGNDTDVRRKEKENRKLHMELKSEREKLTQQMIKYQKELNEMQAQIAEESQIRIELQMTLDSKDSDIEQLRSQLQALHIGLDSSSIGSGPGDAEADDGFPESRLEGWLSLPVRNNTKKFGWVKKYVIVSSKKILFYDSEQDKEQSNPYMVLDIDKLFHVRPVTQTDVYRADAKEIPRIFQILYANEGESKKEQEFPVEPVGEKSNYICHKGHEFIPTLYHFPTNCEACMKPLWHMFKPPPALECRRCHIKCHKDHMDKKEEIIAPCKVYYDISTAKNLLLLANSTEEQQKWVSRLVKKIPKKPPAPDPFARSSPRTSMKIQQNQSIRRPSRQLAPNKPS

COc1cccc(CN2C(=O)N(c3ccc(-c4cn[nH]c4)cc3)CC23CCN(CCC(C)C)CC3)c1 [Example 117, 3-(4-(1H-pyrazol-4-yl)phenyl)-8-isopentyl-1-(3-methoxybenzyl)-1,3,8-triazaspiro[4.5]decan-2-one] and COc1cccc(CN2C(=O)N(c3ccc(-c4cn[nH]c4)cc3)CC23CCN(CC(C)O)CC3)c1 (single isomer, unassigned) [Example 139, 3-(4-(1H-pyrazol-4-yl)phenyl)-8-(2-hydroxypropyl)-1-(3-methoxybenzyl)-1,3,8-triazaspiro[4.5]decan-2-one] cannot be ordered by IC50: less than 3 nM for the first, less than 3 nM for the second.

COc1cccc(CN2C(=O)N(c3ccc(-c4cn[nH]c4)cc3)CC23CCN(CC2CCC(F)(F)CC2)CC3)c1 [Example 231, 3-(4-(1H-pyrazol-4-yl)phenyl)-8-((4,4-difluorocyclohexyl)methyl)-1-(3-methoxybenzyl)-1,3,8-triazaspiro[4.5]decan-2-one] and COc1cccc(CN2C(=O)N(c3ccc(-c4cn[nH]c4)cc3)CC23CCN(C(=O)C2CCC(F)(F)CC2)CC3)c1 [Example 171, 3-(4-(1H-pyrazol-4-yl)phenyl)-8-(4,4-difluorocyclohexanecarbonyl)-1-(3-methoxybenzyl)-1,3,8-triazaspiro[4.5]decan-2-one] cannot be ordered by IC50: less than 3 nM for the first, less than 3 nM for the second.

CN(C)C(=O)c1cccc(CN2C(=O)N(c3ccc(-c4cn[nH]c4)cc3)CC23CCOCC3)c1 [Example 42, 3-((3-(4-(1H-pyrazol-4-yl)phenyl)-2-oxo-8-oxa-1,3-diazaspiro[4.5]decan-1-yl)methyl)-N,N-dimethylbenzamide] and NC(=O)c1cccc(CN2C(=O)N(c3ccc(-c4cn[nH]c4)cc3)CC23CCOCC3)c1 [Example 32, 3-((3-(4-(1H-pyrazol-4-yl)phenyl)-2-oxo-8-oxa-1,3-diazaspiro[4.5]decan-1-yl)methyl)benzamide] fall in the same range of IC50: 30 to 250 nM for the first, 30 to 250 nM for the second.

COc1ccc(CCC(=O)N2CCC3(CC2)CN(c2ccc(-c4cn[nH]c4)cn2)C(=O)C3Nc2cccc(OC)c2)cc1 (stereo not shown) [Example 255, -(5-(1H-pyrazol-4-yl)pyridin-2-yl)-4-((3-methoxy-phenyl)amino)-8-(3-(4-methoxy-phenyl)propanoyl)-2,8-diazaspiro [4.5]decan-3-one] and COc1cccc(NC2C(=O)N(c3ccc(-c4cn[nH]c4)cc3)CC23CCN(C(=O)CO)CC3)c1 (stereo not shown) [Example 250, 2-(4-(1H-pyrazol-4-yl)phenyl)-8-(2-hydroxy-acetyl)-4-((3-methoxy-phenyl)amino)-2,8-diazaspiro [4.5]decan-3-one] fall in the same range of IC50: 250 to 3000 nM for the first, 250 to 3000 nM for the second.

CCc1nc(N2CC3(CCN(C(=O)C4COC4)CC3)N(Cc3cccc(F)c3C)C2=O)ccc1-c1cn[nH]c1 [Example 182, 3-(6-ethyl-5-(1H-pyrazol-4-yl)pyridin-2-yl)-1-(3-fluoro-2-methylbenzyl)-8-(oxetane-3-carbonyl)-1,3,8-triazaspiro[4.5]decan-2-one] and COCC(=O)N1CCC2(CC1)CN(c1ccc(-c3cn[nH]c3)c(OC)n1)C(=O)N2Cc1cccc(F)c1C [Example 226, 1-(3-fluoro-2-methylbenzyl)-3-(6-methoxy-5-(1H-pyrazol-4-yl)pyridin-2-yl)-8-(2-methoxyacetyl)-1,3,8-triazaspiro[4.5]decan-2-one] cannot be ordered by IC50: less than 3 nM for the first, less than 3 nM for the second.

First: COc1cccc(CN2C(=O)N(c3ccc(-c4cn[nH]c4)c(C)n3)CC23CCN(C(=O)OC(C)(C)C)CC3)c1 [Example 52, tert-butyl 1-(3-methoxybenzyl)-3-(6-methyl-5-(1H-pyrazol-4-yl)pyridin-2-yl)-2-oxo-1,3,8-triazaspiro[4.5]decane-8-carboxylate]
Second: CCc1nc(N2CC3(CCN(C(=O)COC)CC3)N(Cc3cccc(OC)c3)C2=O)ccc1-c1cn[nH]c1 [Example 206, 3-(6-ethyl-5-(1H-pyrazol-4-yl)pyridin-2-yl)-8-(2-methoxyacetyl)-1-(3-methoxybenzyl)-1,3,8-triazaspiro[4.5]decan-2-one]
The IC50 of the first is higher: 30 to 250 nM for the first, less than 3 nM for the second.

Compared with COc1cccc(CN2C(=O)N(c3ccc(-c4cn[nH]c4)cc3)CC23CCN(C(=O)c2cnn4ccccc24)CC3)c1 [Example 180, 3-(4-(1H-pyrazol-4-yl)phenyl)-1-(3-methoxybenzyl)-8-(pyrazolo[1,5-a]pyridine-3-carbonyl)-1,3,8-triazaspiro[4.5] decan-2-one], COc1cccc(CN2C(=O)N(c3ccc(-c4cn[nH]c4)cc3)CC23CCN(C(N)=O)CC3)c1 [Example 92, 3-(4-(1H-pyrazol-4-yl)phenyl)-1-(3-methoxybenzyl)-2-oxo-1,3,8-triazaspiro[4.5]decane-8-carboxamide] is lower in IC50: 3 to 30 nM for the first, less than 3 nM for the second. The second is the more potent here.

Compared with COCCN1CCC2(CC1)CN(c1ccc(-c3cn[nH]c3)cn1)C(=O)N2Cc1cccc(OC)c1 [Example 162, 3-(5-(1H-pyrazol-4-yl)pyridin-2-yl)-1-(3-methoxybenzyl)-8-(2-methoxyethyl)-1,3,8-triazaspiro[4.5]decan-2-one], COc1cccc(CN2C(=O)N(c3ccc(-c4cn[nH]c4)cn3)CC23CCN(C(=O)C(C)O)CC3)c1 (stereo not shown) [Example 198, 3-(5-(1H-pyrazol-4-yl)pyridin-2-yl)-8-(2-hydroxypropanoyl)-1-(3-methoxybenzyl)-1,3,8-triazaspiro[4.5]decan-2-one] is higher in IC50: less than 3 nM for the first, 3 to 30 nM for the second.

O=C1N(c2ccc(-c3cn[nH]c3)cc2)CC2(CCOCC2)N1Cc1cccc(C(F)(F)F)c1 [Example 18, 3-(4-(1H-pyrazol-4-yl)phenyl)-1-(3-(trifluoromethyl)benzyl)-8-oxa-1,3-diazaspiro[4.5]decan-2-one] and O=C1N(c2ccc(-c3cn[nH]c3)cc2)CC2(CCOCC2)N1Cc1cccc(OC(F)(F)F)c1 [Example 20, 3-(4-(1H-pyrazol-4-yl)phenyl)-1-(3-(trifluoromethoxy)benzyl)-8-oxa-1,3-diazaspiro[4.5]decan-2-one] fall in the same range of IC50: 30 to 250 nM for the first, 30 to 250 nM for the second.

COc1cccc(CN2C(=O)N(c3ccc(-c4cn[nH]c4)cc3)CC23CCN(C(=O)OC(C)C)CC3)c1 [Example 99, isopropyl 3-(4-(1H-pyrazol-4-yl)phenyl)-1-(3-methoxybenzyl)-2-oxo-1,3,8-triazaspiro[4.5]decane-8-carboxylate] and COc1cccc(CN2C(=O)N(c3ccc(-c4cn[nH]c4)cc3)CC23CCN(CC(N)=O)CC3)c1 [Example 169, 2-(3-(4-(1H-pyrazol-4-yl)phenyl)-1-(3-methoxybenzyl)-2-oxo-1,3,8-triazaspiro[4.5]decan-8-yl)acetamide] cannot be ordered by IC50: less than 3 nM for the first, less than 3 nM for the second.

First: COc1cccc(CN2C(=O)N(c3ncc(-c4cn[nH]c4)c(OC)n3)CC23CCN(C(=O)C(C)(C)CO)CC3)c1 [Example 211, 8-(3-hydroxy-2,2-dimethylpropanoyl)-3-(4-methoxy-5-(1H-pyrazol-4-yl)pyrimidin-2-yl)-1-(3-methoxybenzyl)-1,3,8-triazaspiro[4.5] decan-2-one]
Second: COc1cccc(CN2C(=O)N(c3ncc(-c4cn[nH]c4)c(OC)n3)CC23CCN(C(C)=O)CC3)c1 [Example 90, 8-acetyl-3-(4-methoxy-5-(1H-pyrazol-4-yl)pyrimidin-2-yl)-1-(3-methoxybenzyl)-1,3,8-triazaspiro[4.5]decan-2-one]
The IC50 of the first is higher: 30 to 250 nM for the first, 3 to 30 nM for the second.

CCc1nc(N2CC3(CCN(C(=O)[C@H]4CC4(F)F)CC3)N(Cc3cccc(OC)c3)C2=O)ccc1-c1cn[nH]c1 [Example 217, (R)-8-(2,2-difluorocyclopropane-carbonyl)-3-(6-ethyl-5-(1H-pyrazol-4-yl)pyridin-2-yl)-1-(3-methoxybenzyl)-1,3,8-triazaspiro[4.5]decan-2-one] and COc1cccc(CN2C(=O)N(c3ccc(-c4cn[nH]c4)cc3)CC23CCN(CCC(F)(F)F)CC3)c1 [Example 121, 3-(4-(1H-pyrazol-4-yl)phenyl)-1-(3-methoxybenzyl)-8-(3,3,3-trifluoropropyl)-1,3,8-triazaspiro[4.5]decan-2-one] cannot be ordered by IC50: less than 3 nM for the first, less than 3 nM for the second.

First: CCc1cc(N2CC3(CC3)N(Cc3cc(F)cc(OC)c3)C2=O)ccc1-c1cn[nH]c1 [Example 4, 6-(3-ethyl-4-(1H-pyrazol-4-yl)phenyl)-4-(3-fluoro-5-methoxybenzyl)-4,6-diazaspiro[2.4]heptan-5-one]
Second: CC(=O)N1CCC2(CC1)CN(c1ccc(-c3cn[nH]c3)cc1)C(=O)N2Cc1cccc(F)c1F [Example 77, 3-(4-(1H-pyrazol-4-yl)phenyl)-8-acetyl-1-(2,3-difluorobenzyl)-1,3,8-triazaspiro[4.5]decan-2-one]
The IC50 of the first is lower: 3 to 30 nM for the first, 30 to 250 nM for the second. The first is the more potent here.

First: CNC(=O)c1cccc(CN2C(=O)N(c3ccc(-c4cn[nH]c4)cc3)CC23CCOCC3)c1 [Example 31, 3-((3-(4-(1H-pyrazol-4-yl)phenyl)-2-oxo-8-oxa-1,3-diazaspiro[4.5]decan-1-yl)methyl)-N-methylbenzamide]
Second: CC(C)CNC(=O)c1cccc(CN2C(=O)N(c3ccc(-c4cn[nH]c4)cc3)CC23CCOCC3)c1 [Example 35, 3-((3-(4-(1H-pyrazol-4-yl)phenyl)-2-oxo-8-oxa-1,3-diazaspiro[4.5]decan-1-yl)methyl)-N-isobutylbenzamide]
The IC50 of the first is higher: 30 to 250 nM for the first, less than 3 nM for the second.

First: CN(C)C1CN(C(=O)c2cccc(CN3C(=O)N(c4ccc(-c5cn[nH]c5)cc4)CC34CCOCC4)c2)C1 [Example 46, 3-(4-(1H-pyrazol-4-yl)phenyl)-1-(3-(3-(dimethylamino)azetidine-1-carbonyl)benzyl)-8-oxa-1,3-diazaspiro[4.5]decan-2-one]
Second: O=C(c1cccc(CN2C(=O)N(c3ccc(-c4cn[nH]c4)cc3)CC23CCOCC3)c1)N1CC(F)C1 [Example 43, 3-(4-(1H-pyrazol-4-yl)phenyl)-1-(3-(3-fluoroazetidine-1-carbonyl)benzyl)-8-oxa-1,3-diazaspiro[4.5]decan-2-one]
The IC50 of the first is lower: 3 to 30 nM for the first, 250 to 3000 nM for the second. The first is the more potent here.

For COC(=O)N1CC2(C1)CN(c1ccc(-c3cn[nH]c3)cc1)C(=O)C2Nc1cccc(OC)c1 (stereo not shown) [Example 248, methyl 6-(4-(1H-pyrazol-4-yl)phenyl)-8-((3-methoxy-phenyl)amino)-7-oxo-2,6-diazaspiro [3.4]octane-2-carboxylate], the IC50 was 250 to 3000 nM.
